In US6525059B1, “Substituted pyrazoles as p38 kinase inhibitors” (G. D. Searle & Company, priority 1998, dated 2003):

Key:
human TNF = experiment: TNF inhibition: human whole blood assay; type: cell-based; details: Homo sapiens, Table 10, human whole blood, LPS; read-out: TNF Inhibition-Human Whole Blood Assay
[1] = molecular target: T1, human GST-p38 kinase alpha (Homo sapiens, UniProt Q16539); experiment: p38 kinase in vitro assay, second format, phosphorylation of EGFRP with 33P-ATP; type: biochemical; details: Table 10, 10% DMSO; @ 1.0 hour; read-out: p38α Kinase Assay IC50
T1 construct: The coding region of the human p38a cDNA was obtained by PCR-amplification from RNA isolated from the human monocyte cell line THP.1; made in house; host or cells: E. coli DH10B
In short: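 Activated human GST-p38α (pre-activated with GST-MKK6, 1 h, 30 °C) phosphorylates EGFR 21-mer peptide (200 μM) with 50 μM ATP plus γ-33P-ATP, pH 7.5, 60 min at room temperature. Unreacted ATP removed by AG 1×8 resin; supernatant scintillation-counted.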

TNF-α = experiment: Rat assay: LPS-challenged rats, serum TNF-α by ELISA; type: in vivo; details: Rattus norvegicus, po; for inhibition in vivo at 20 mg/kg: Table 10, dose 20.0 mg/kg

T1 sequence (Q16539 whole entry): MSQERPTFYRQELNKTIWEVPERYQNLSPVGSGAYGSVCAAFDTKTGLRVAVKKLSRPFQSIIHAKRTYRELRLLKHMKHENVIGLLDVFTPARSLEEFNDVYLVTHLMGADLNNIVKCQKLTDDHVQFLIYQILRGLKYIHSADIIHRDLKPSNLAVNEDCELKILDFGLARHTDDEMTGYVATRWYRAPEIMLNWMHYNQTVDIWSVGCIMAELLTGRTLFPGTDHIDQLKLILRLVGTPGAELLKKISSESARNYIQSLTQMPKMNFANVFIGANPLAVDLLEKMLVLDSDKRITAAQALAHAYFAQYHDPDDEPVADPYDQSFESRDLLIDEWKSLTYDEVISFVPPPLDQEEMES

| SMILES | IC50 (human TNF) [nM] | melting point [°C] | IC50 [1] [nM] | inhibition in vivo at 1 mg/kg (TNF-α; Table 10, dose 1.0 mg/kg, read-out: Rat LPS Assay % Inhibition) [%] | inhibition in vivo at 5 mg/kg (TNF-α; Table 10, dose 5.0 mg/kg, read-out: Rat LPS Assay % Inhibition) [%] | inhibition in vivo at 20 mg/kg (TNF-α) [%] |
| --- | --- | --- | --- | --- | --- | --- |
| O=C1CN(Cc2ccccc2)CC(=O)N1c1[nH]nc(-c2ccc(Cl)cc2)c1-c1ccncc1 [Example A-428] | 680 | > 300 | 400 | – | – | – |
| C[S+]([O-])c1[nH]nc(-c2ccc(F)cc2)c1-c1ccncc1 (stereo not drawn) [Example A-436] | 4610 | 262.9 | 2810 | – | – | – |
| Clc1ccc(-c2n[nH]c(OC3CCOC3)c2-c2ccncc2)cc1 (stereo not drawn) [Example A-443] | 4890 | > 300 | 470 | – | – | – |
| CC(C)(C)OC(=O)NCCOc1[nH]nc(-c2ccc(Cl)cc2)c1-c1ccncc1 [Example A-445] | > 25000 | > 300 | 1080 | – | – | – |
| COc1[nH]nc(-c2ccc(Cl)cc2)c1-c1ccncc1 [Example A-446] | 3380 | 265.3 | 900 | – | – | – |
| Fc1ccc(-c2n[nH]c(SCC3OCCO3)c2-c2ccncc2)cc1 [Example A-451] | 15000 | 202.1 to 205.4 | 78 | – | – | – |
| COc1ccc(CSc2[nH]nc(-c3ccc(F)cc3)c2-c2ccncc2)cc1 [Example A-452] | 240 | 214.7 to 215.8 | 2870 | – | – | – |
| COC(=O)CSc1[nH]nc(-c2ccc(Cl)cc2)c1-c1ccncc1 [Example A-457] | > 25000 | 192.8 to 195.2 | 400 | – | – | – |
| CC(C)(C)OC(=O)N1CCC(Sc2[nH]nc(-c3ccc(Cl)cc3)c2-c2ccncc2)CC1 [Example A-458] | > 25000 | 220.9 to 221 | 8700 | – | – | – |
| CNC(=O)CSc1[nH]nc(-c2ccc(Cl)cc2)c1-c1ccncc1 [Example A-462] | > 25000 | 284 to 288.4 | 1660 | – | – | – |
| CN(C)CCCNC(=O)CSc1[nH]nc(-c2ccc(Cl)cc2)c1-c1ccncc1 [Example A-463] | > 25000 | 168.8 to 169.5 | 1660 | – | – | – |
| CN1CCC(Sc2[nH]nc(-c3ccc(Cl)cc3)c2-c2ccncc2)CC1 [Example A-468, 3-(4-chlorophenyl)-5-[(1-methylpiperidin-4-yl)-thio]-4-pyridin-4-yl-1H-pyrazole] | – | 227.7 | 300 | 46 | 50 | 94 |
| O=C1OCCC1CSc1[nH]nc(-c2ccc(Cl)cc2)c1-c1ccncc1 (stereo not drawn) [Example A-472] | > 25000 | 224.2 to 225.9 | – | – | – | – |
| Clc1ccc(-c2n[nH]c(SCCOC3CCCCO3)c2-c2ccncc2)cc1 (stereo not drawn) [Example A-474] | 970 | 163.2 to 163.5 | – | – | – | 59 |
| N#CCCCSc1[nH]nc(-c2ccc(Cl)cc2)c1-c1ccncc1 [Example A-475] | 5110 | 216.7 to 216.9 | 280 | – | – | – |
| C#CCSc1[nH]nc(-c2ccc(Cl)cc2)c1-c1ccncc1 [Example A-478] | 490 | 212.7 to 213.2 | 180 | – | – | – |
| C=CCSc1[nH]nc(-c2ccc(Cl)cc2)c1-c1ccncc1 [Example A-479] | 2970 | 207.3 to 208.1 | 72 | – | – | – |
| NCCSc1[nH]nc(-c2ccc(Cl)cc2)c1-c1ccncc1 [Example A-480] | 160 | 186.8 to 187.8 | – | – | – | – |
| Clc1ccc(-c2n[nH]c(SCCc3c[nH]c4ccccc34)c2-c2ccncc2)cc1 [Example A-481] | > 25000 | 211.9 to 213.2 | 200 | – | – | – |
| N#CCCSc1[nH]nc(-c2ccc(Cl)cc2)c1-c1ccncc1 [Example A-483] | 510 | 205.7 to 206.5 | 300 | – | – | – |
